Literature values in patent US8193376B2, “Artemisinin derivatives with natural amino acids, peptides, and amino sugars for the treatment of infection and topical condition in mammals” (Bioderm Research, priority 2007, dated 2012).

Key:
[1] = tested on: nucleic acid synthesis; settings: relative to artemisinin
[2] = tested on: malaria; settings: relative to artemisinin

SMILES: CCO[C@H]1O[C@@H]2O[C@@]3(C)CC[C@H]4[C@H](C)CC[C@@H]([C@H]1C)[C@@]24OO3 [arteether, Arteether]
- ability to inhibit nucleic acid synthesis, times the activity of artemisinin [1]: 100 times

SMILES: C[C@H]1[C@@H](O)O[C@@H]2O[C@@]3(C)CC[C@H]4[C@H](C)CC[C@@H]1[C@@]24OO3 [Dihydroartemisinin]
- antimalarial potency higher than that of artemisinin [2]: 60%
- ability to inhibit nucleic acid synthesis, times the activity of artemisinin [1]: 100 times

SMILES: CO[C@H]1O[C@@H]2O[C@@]3(C)CC[C@H]4[C@H](C)CC[C@@H]([C@H]1C)[C@@]24OO3 [Artemether]
- antimalarial potency, times that of artemisinin [2]: 6 times
- ability to inhibit nucleic acid synthesis, times the activity of artemisinin [1]: 100 times

SMILES: C[C@H]1[C@H](OC(=O)CCC(=O)O)O[C@@H]2O[C@@]3(C)CC[C@H]4[C@H](C)CC[C@@H]1[C@@]24OO3 [Artesunate]
- antimalarial potency, times that of artemisinin [2]: 5.2 times
- ability to inhibit nucleic acid synthesis, times the activity of artemisinin [1]: 100 times

SMILES: CCCOC(=O)OC1O[C@@H]2O[C@@]3(C)CC[C@H]4[C@H](C)CC[C@@H]([C@H]1C)[C@@]24OO3 (some centres unmarked) [propylcarbonate dihydroartemisinin]
- ability to inhibit nucleic acid synthesis, times the activity of artemisinin [1]: 100 times
